In publication PMC6188150, “A small molecule regulator of tissue transglutaminase conformation inhibits the malignant phenotype of cancer cells” (Oncotarget, 2018):

Target: T1, tissue transglutaminase (tTG) (Homo sapiens, UniProt P21980)
T1 construct: gene TGM2; recombinant tTG
T1 sequence (P21980 2-687): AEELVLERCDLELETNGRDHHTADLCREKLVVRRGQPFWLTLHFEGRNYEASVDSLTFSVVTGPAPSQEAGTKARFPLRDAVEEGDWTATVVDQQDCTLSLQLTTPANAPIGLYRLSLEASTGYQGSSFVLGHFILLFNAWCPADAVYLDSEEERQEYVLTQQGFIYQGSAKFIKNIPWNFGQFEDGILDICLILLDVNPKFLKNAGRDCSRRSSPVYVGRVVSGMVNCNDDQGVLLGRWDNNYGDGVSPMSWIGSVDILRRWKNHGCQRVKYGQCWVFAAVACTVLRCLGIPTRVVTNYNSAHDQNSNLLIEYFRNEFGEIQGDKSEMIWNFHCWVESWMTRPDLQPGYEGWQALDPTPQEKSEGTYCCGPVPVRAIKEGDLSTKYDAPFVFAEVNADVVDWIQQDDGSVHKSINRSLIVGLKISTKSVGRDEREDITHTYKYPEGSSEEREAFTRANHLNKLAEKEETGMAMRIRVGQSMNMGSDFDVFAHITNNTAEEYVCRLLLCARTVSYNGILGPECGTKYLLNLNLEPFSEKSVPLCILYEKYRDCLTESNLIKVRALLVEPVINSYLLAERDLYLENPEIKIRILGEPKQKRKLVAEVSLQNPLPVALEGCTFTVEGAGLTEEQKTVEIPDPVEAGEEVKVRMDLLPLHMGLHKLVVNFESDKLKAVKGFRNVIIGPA
Assay: bodipy-GTP-γS fluorescence binding assay after CaCl2 then EDTA; also BPA/NNDC crosslinking inhibition and trypsin susceptibility

## Cc1ccc(N/C=C2/C(=O)NC(=O)N(c3ccccc3)C2=O)cc1CN1C(=O)c2ccccc2C1=O [TTGM 5826]
  EC50: 20 µM
